According to US6967196B1, “Sulfonamide compounds and uses thereof” (Bristol-Myers Squibb Company, priority 1999, dated 2005):
Structures can show the parent of a compound that is named as a salt. Where two headings read alike, the source gives them in different places.

System: amyloid β production in transfected H4 (human neuroglioma) cells stably expressing APP constructs
Assay: In vitro cell-based assay of inhibitors of amyloid β production (ELISA)
Details: transfected H4 cells stably expressing APP, approximately 16 hours incubation, amyloid β in medium by ELISA, read-out: ACTIVITY (IC50, inhibition of amyloid β production)
Summary of the method: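 Aβ secreted into the medium was determined by a two-antibody ELISA specific for the Aβ C-terminus, calibrated with known Aβ amounts. Before that, compounds (10-100 μM initially) were left on the cells for roughly 16 hours.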

Structure (SMILES) | IC50 (Homo sapiens, 16 h) | other results
CCSCCCc1cc(F)ccc1[C@@H](C)N(c1cc(F)ccc1F)S(=O)(=O)c1ccc(SCC)cc1 [Example 936, N-(2,5-difluorophenyl)-4-(ethylsulfanyl)-N-((1R)-1-{2-[3-(ethylsulfanyl)propyl]-4-fluorophenyl}ethyl)benzenesulfonamide] | > 500 nM | –
COc1cc(C(=O)N2CCCCC2CCOc2ccccc2CN(c2cc(F)ccc2F)S(=O)(=O)c2ccc(Cl)cc2)cc(OC)c1OC (stereo not drawn) [Example 938, 4-chloro-N-(2,5-difluorophenyl)-N-(2-{2-[1-(3,4,5-trimethoxybenzoyl)-2-piperidinyl]ethoxy}benzyl)benzenesulfonamide] | > 500 nM | –
C[C@H](c1ccccc1CN1CCCCC1)N(c1cc(F)ccc1F)S(=O)(=O)c1ccc(Cl)cc1 [Example 939, 4-chloro-N-(2,5-difluorophenyl)-N-{(1R)-1-[2-(1-piperidinylmethyl)phenyl]ethyl}benzenesulfonamide hydrochloride] | – | IC50: > 500 nM
CN1C2CCC1[C@@H](COc1ccccc1CN(c1ccccc1)S(=O)(=O)c1ccc(Cl)cc1)C2 (stereo partly drawn) [Example 941, 4-chloro-N-(2-{[(2S)-7-methyl-7-azabicyclo[2.2.1]hept-2-yl]methoxy}benzyl)-N-phenylbenzenesulfonamide hydrochloride] | – | IC50 (Homo sapiens): > 500 nM
O=C(c1ccccc1Br)N1CCCCC1CCOc1ccccc1CN(c1cc(F)ccc1F)S(=O)(=O)c1ccc(Cl)cc1 (stereo not drawn) [Example 942, N-(2-{2-[1-(2-bromobenzoyl)-2-piperidinyl]ethoxy}benzyl)-4-chloro-N-(2,5-difluorophenyl)benzenesulfonamide] | > 500 nM | –
O=C(c1ccc(F)cc1)N1CCCCC1CCOc1ccccc1CN(c1cc(F)ccc1F)S(=O)(=O)c1ccc(Cl)cc1 (stereo not drawn) [Example 946, 4-chloro-N-(2,5-difluorophenyl)-N-(2-{2-[1-(4-fluorobenzoyl)-2-piperidinyl]ethoxy}benzyl)benzenesulfonamide] | > 500 nM | –
O=S1(=O)c2ccc(Cl)cc2-c2ccccc2N1Cc1ccccc1OCCCN1CCCCC1 [Example 948, 2-chloro-5-{2-[3-(1-piperidinyl)propoxy]benzyl}-6H-dibenzo]c,e][1,2]thiazine 5,5-dioxide hydrochloride] | – | IC50: > 500 nM
C=C(C)CN(Cc1ccccc1OCCCN1CCCCC1)S(=O)(=O)c1ccc(Cl)cc1 [Example 955, 4-chloro-N-(2-methyl-2-propenyl)-N-{2-[3-(1-piperidinyl)propoxy]benzyl}benzenesulfonamide hydrochoride] | – | IC50: > 500 nM
O=S(=O)(c1ccc(Cl)cc1)N(CCc1cccc(OCCCN2CCCCC2)c1)c1ccccc1 [Example 956, 4-chloro-N-phenyl-N-(2-{3-[3-(1-piperidinyl)propoxy]phenyl}ethyl)benzeneslfonamide hydrochloride] | – | IC50: > 500 nM
Cc1ccc(OCCCN2CCCCC2)c(CN(c2cc(F)ccc2F)S(=O)(=O)c2ccc(Cl)cc2)c1 [Example 957, 4-chloro-N-(2,5-difluorophenyl)-N-{5-methyl-2-[3-(1-piperidinyl)propoxy]benzyl}benzenesulfonamide hydrochloride] | > 500 nM | –
CN(CCCOc1ccccc1CN(c1cc(F)ccc1F)S(=O)(=O)c1ccc(Cl)cc1)C(=O)c1cc([N+](=O)[O-])cc([N+](=O)[O-])c1 [Example 958, N-{3-[2-({[(4-chlorophenyl)sulfonyl]-2,5-difluoroanilino}methyl)phenoxy]propyl}-N-methyl-3,5-dinitrobenzamide] | – | IC50: > 500 nM
CN1CCCC1CCOc1ccccc1CN(c1ccccc1)S(=O)(=O)c1ccc(Cl)cc1 (stereo not drawn) [Example 962, 4-chloro-N-{2-[2-(1-methyl-2-pyrrolidinyl)ethoxy]benzyl}-N-phenylbenzenesulfonamide hydrochloride] | > 500 nM | –
O=S(=O)(c1ccc(Cl)cc1)N(Cc1cc(Cl)ccc1OCCCN1CCCCC1)c1ccccc1 [Example 964, 4-chloro-N-{5-chloro-2-[3-(1-piperidinyl)propoxy]benzyl}-N-phenylbenzenesulfonamide hydrochloride] | > 500 nM | –
CC1(O)CCN(CCCOc2ccccc2CN(c2ccccc2)S(=O)(=O)c2ccc(Cl)cc2)CC1 [Example 965, 4-chloro-N-{2-[3-(4-hydroxy-4-methyl-1-piperidinyl)propoxy]benzyl}-N-phenylbenzenesulfonamide hydrochloride] | > 500 nM | –
O=C1CCN(CCCOc2ccccc2CN(c2ccccc2)S(=O)(=O)c2ccc(Cl)cc2)CC1 [Example 968, 4-chloro-N-{2-[3-(4-oxo-1-piperidinyl)propoxy]benzyl}-N-phenylbenzenesulfonamide hydrochloride] | > 500 nM | –
O=S(=O)(c1ccc(Cl)cc1)N(Cc1ccccc1OCCCN1CCCCC1)[C@H]1CC2CCC1C2 (stereo partly drawn) [Example 969, N-{(2S)-bicyclo[2.2.1]hept-2-yl]-4-chloro-N-{2-[3-(1-piperidinyl)propoxy]benzyl}benzenesulfonamide hydrochloride] | – | IC50: > 500 nM
O=S(=O)(c1ccc(Cl)cc1)N(Cc1ccccc1OCCCN1CCCCC1)Cc1c(F)c(F)c(F)c(F)c1F [Example 974, 4-chloro-N-(2,3,4,5,6-pentafluorobenzyl)-N-{2-[3-(1-piperidinyl)propoxy]benzyl}benzenesulfonamide hydrochloride] | > 500 nM | –
O=S(=O)(c1ccc(Cl)cc1)N(Cc1ccccc1OCCCCN1CCCCC1)c1ccccc1 [Example 977, 4-chloro-N-phenyl-N-{2-[4-(1-piperidinyl)butoxy]benzyl}benzenesulfonamide hydrochloride] | > 500 nM | –
O=S(=O)(c1ccc(Cl)cc1)N(Cc1ccccc1OCCCNC1CC1)c1ccccc1 [Example 979, 4-chloro-N-{2-[3-(cyclopropylamino)propoxy]benzyl}-N-phenylbenzenesulfonamide hydrochloride] | > 500 nM | –
CCC[C@@H](C)N(Cc1ccccc1OCCCN1CCCCC1)S(=O)(=O)c1ccc(Cl)cc1 [Example 980, 4-chloro-N-[(1R)-1-methylbutyl]-N-{2-[3-(1-piperidinyl)propoxy]benzyl}benzenesulfonamide hydrochloride] | – | IC50 (hydrochloride): > 500 nM

The next lines start with results.

IC50 (Homo sapiens, 16 h) | Structure (SMILES) | other results
> 500 nM | O=S(=O)(c1ccc(Cl)cc1)N(Cc1ccccc1OCCCN1CCSCC1)c1ccccc1 [Example 937, 4-chloro-N-phenyl-N-{2-[3-(4-thiomorpholinyl)propoxy]benzyl}benzenesulfonamide hydrochloride] | –
> 500 nM | O=S(=O)(c1ccc(Cl)cc1)N(Cc1ccccc1OCCCN1CCNCC1)c1ccccc1 [Example 944, 4-chloro-N-phenyl-N-{2-[3-(1-piperazinyl)propoxy]benzyl}benzenesulfonamide dihydrochloride] | –
> 500 nM | O=S(=O)(c1ccc(Cl)cc1)N(Cc1cccnc1)Cc1ccccc1OCCCN1CCCCC1 [Example 945, 4-chloro-N-{2-[3-(1-piperidinyl)propoxy]benzyl}-N-(3-pyridinylmethyl)benzenesulfonamide hydrochloride] | –
> 500 nM | CC(C)CCCN(Cc1ccccc1OCCCN1CCCCC1)S(=O)(=O)c1ccc(Cl)cc1 [Example 951, 4-chloro-N-(4-methylpentyl)-N-{2-[3-(1-piperidinyl)propoxy]benzyl}benzenesulfonamide hydrochloride] | –
> 500 nM | CSc1cccc(N(Cc2ccccc2OCCCN2CCCCC2)S(=O)(=O)c2ccc(Cl)cc2)c1 [Example 952, 4-chloro-N-[3-(methylsulfanyl)phenyl]N-{2-[3-(1-piperidinyl)propoxy]benzyl}benzenesulfonamide hydrochloride] | –
> 500 nM | O=S(=O)(c1ccc(Cl)cc1)N(Cc1ccccc1OCCCN1CCCCC1)[C@H]1CC2CCC1C2 (stereo partly drawn) [Example 954, N-[(2S)-bicyclo[2.2.1]hept-2-yl]-4-chloro-N-{2-[3-(1-piperidinyl)propoxy]benzyl}benzenesulfonamide hydrochloride] | –
> 500 nM | O=S(=O)(c1ccc(Cl)cc1)N(Cc1ccccc1OCCC1CCCN1)c1ccccc1 (stereo not drawn) [Example 963, 4-chloro-N-phenyl-N-{2-[2-(2-pyrrolidinyl)ethoxy]benzyl}benzenesulfonamide hydrochloride] | –
> 500 nM | O=S(=O)(c1ccc(Cl)cc1)N(Cc1ccncc1)Cc1ccccc1OCCCN1CCCCC1 [Example 967, 4-chloro-N-{2-[3-(1-piperidinyl)propoxy]benzyl}-N-(4-pyridinylmethyl)benzenesulfonamide hydrochloride] | –
> 500 nM | O=S(=O)(c1ccc(Cl)cc1)N(CCc1ccccc1OCCCN1CCCCC1)c1ccccc1 [Example 972, 4-chloro-N-phenyl-N-(2-{2-[3-(1-piperidinyl)propoxy]phenyl}ethyl)benzenesulfonamide hydrochloride] | –
> 500 nM | O=S(=O)(c1ccc(Cl)cc1)N(Cc1ccccc1C#CCCN1CCCCC1)c1ccccc1 [Example 973, 4-chloro-N-phenyl-N-{2-[4-(1-piperidinyl)-1-butynyl]benzyl}benzenesulfonamide] | –
> 500 nM | O=S(=O)(c1ccc(Cl)cc1)N(Cc1cc(Cl)ccc1O)c1ccccc1 [Example 975, 4-chloro-N-(5-chloro-2-hydroxybenzyl)-N-phenylbenzenesulfonamide] | –
> 500 nM | O=S(=O)(c1ccc(Cl)cc1)N(Cc1ccccc1OCCCCCN1CCCCC1)c1ccccc1 [Example 976, 4-chloro-N-phenyl-N-(2-{[5-(1-piperidinyl)pentyl]oxy}benzyl)benzenesulfonamide hydrochloride] | –
> 500 nM | O=S(=O)(c1ccc(Cl)cc1)N(Cc1ccccc1CCCCCN1CCCCC1)c1ccccc1 [Example 978, 4-chloro-N-phenyl-N-{2-[5-(1-piperidinyl)pentyl]benzyl}benzenesulfonamide hydrochloride] | –
